According to the NIST ThermoML archive (doi:10.1016/j.fluid.2005.06.011):

Experiments:
[1] = xn = mol fraction of the nth substance listed; conditions: 308.15 K, 101.3 kPa, Liquid
[2] = excess molar enthalpy (molar enthalpy of mixing); xn = mol fraction of the nth substance listed; conditions: 308.15 K, 101.3 kPa, Liquid
[3] = refractive index (Na D-line) (dimensionless); conditions: 308.15 K; 101.33 kPa; Liquid; Standard Abbe refractometry
[4] = 308.15 K; 101.33 kPa; Liquid; Vibrating tube method

CCCCOC(C)=O [butyl ethanoate] + Cc1ccc(C)cc1
Conditions | excess molar enthalpy [kJ/mol] | excess molar volume [m3/mol]
[1], x1 = 0.0881 | – | -8e-08
[1], x1 = 0.163 | – | -1.59e-07
[1], x1 = 0.314 | – | -2.47e-07
[1], x1 = 0.3481 | – | -2.81e-07
[1], x1 = 0.5001 | – | -3.16e-07
[1], x1 = 0.6164 | – | -3.18e-07
[1], x1 = 0.738 | – | -2.82e-07
[1], x1 = 0.7871 | – | -2.64e-07
[1], x1 = 0.8758 | – | -2.21e-07
[1], x1 = 0.9179 | – | -1.71e-07
[2], x1 = 0.0722 | -0.0149 | –
[2], x1 = 0.1892 | -0.0358 | –
[2], x1 = 0.3182 | -0.0479 | –
[2], x1 = 0.359 | -0.0511 | –
[2], x1 = 0.4828 | -0.0576 | –
[2], x1 = 0.6364 | -0.057 | –
[2], x1 = 0.6512 | -0.057 | –
[2], x1 = 0.7888 | -0.0448 | –
[2], x1 = 0.8394 | -0.0369 | –
[2], x1 = 0.9169 | -0.0228 | –

CCCCOC(C)=O [butyl ethanoate]
Conditions | mass density [kg/m3] | refractive index
[3] | – | 1.3908
[4] | 865.45 | –

Cc1ccc(C)cc1 [1,4-dimethylbenzene]
Conditions | mass density [kg/m3] | refractive index
[3] | – | 1.4879
[4] | 847.91 | –

CCCCOC(C)=O [butyl ethanoate] + Cc1ccccc1
Conditions | excess molar enthalpy [kJ/mol] | excess molar volume [m3/mol]
[1], x1 = 0.055 | – | -1.9e-08
[1], x1 = 0.1581 | – | -6e-08
[1], x1 = 0.2744 | – | -8.2e-08
[1], x1 = 0.442 | – | -1e-07
[1], x1 = 0.5243 | – | -1.03e-07
[1], x1 = 0.6231 | – | -1.02e-07
[1], x1 = 0.7619 | – | -8.9e-08
[1], x1 = 0.849 | – | -6.9e-08
[1], x1 = 0.9052 | – | -5.1e-08
[2], x1 = 0.152 | -0.0292 | –
[2], x1 = 0.1873 | -0.036 | –
[2], x1 = 0.2873 | -0.05 | –
[2], x1 = 0.3922 | -0.0571 | –
[2], x1 = 0.4465 | -0.06 | –
[2], x1 = 0.502 | -0.0618 | –
[2], x1 = 0.543 | -0.063 | –
[2], x1 = 0.6 | -0.062 | –
[2], x1 = 0.7435 | -0.052 | –
[2], x1 = 0.8705 | -0.036 | –
[2], x1 = 0.8898 | -0.032 | –

Cc1ccccc1 [toluene]
Conditions | mass density [kg/m3] | refractive index
[3] | – | 1.4885
[4] | 852.8 | –

Cc1cccc(C)c1 [1,3-dimethylbenzene] + CCCCOC(C)=O
Conditions | excess molar enthalpy [kJ/mol] | excess molar volume [m3/mol]
[1], x2 = 0.1509 | – | -7.7e-08
[1], x2 = 0.1651 | – | -8.3e-08
[1], x2 = 0.2243 | – | -9.4e-08
[1], x2 = 0.314 | – | -1.27e-07
[1], x2 = 0.3921 | – | -1.42e-07
[1], x2 = 0.5651 | – | -1.44e-07
[1], x2 = 0.669 | – | -1.31e-07
[1], x2 = 0.8091 | – | -9.7e-08
[1], x2 = 0.8816 | – | -5.2e-08
[1], x2 = 0.9052 | – | -4.3e-08
[2], x2 = 0.1568 | 0.0099 | –
[2], x2 = 0.1886 | 0.0139 | –
[2], x2 = 0.2879 | 0.0171 | –
[2], x2 = 0.4265 | 0.0219 | –
[2], x2 = 0.4818 | 0.0221 | –
[2], x2 = 0.5375 | 0.0232 | –
[2], x2 = 0.6365 | 0.0234 | –
[2], x2 = 0.7881 | 0.0191 | –
[2], x2 = 0.8286 | 0.018 | –
[2], x2 = 0.9169 | 0.0119 | –

c1ccccc1 [benzene]
Conditions | mass density [kg/m3] | refractive index
[3] | – | 1.4921
[4] | 862.93 | –

Cc1cccc(C)c1 [1,3-dimethylbenzene]
Conditions | mass density [kg/m3] | refractive index
[3] | – | 1.4946
[4] | 851.53 | –

C1CCCCC1 [cyclohexane]
Conditions | mass density [kg/m3] | refractive index
[3] | – | 1.4205
[4] | 764.43 | –

Cc1ccccc1C [1,2-dimethylbenzene]
Conditions | mass density [kg/m3] | refractive index
[3] | – | 1.5031
[4] | 867.41 | –

CCCCOC(C)=O [butyl ethanoate] + C1CCCCC1
Conditions | excess molar enthalpy [kJ/mol] | excess molar volume [m3/mol]
[1], x1 = 0.1062 | – | 3.47e-07
[1], x1 = 0.1575 | – | 4.35e-07
[1], x1 = 0.223 | – | 5.21e-07
[1], x1 = 0.3004 | – | 6.04e-07
[1], x1 = 0.4851 | – | 6.74e-07
[1], x1 = 0.4863 | – | 6.85e-07
[1], x1 = 0.5412 | – | 6.54e-07
[1], x1 = 0.6489 | – | 6.07e-07
[1], x1 = 0.735 | – | 4.98e-07
[1], x1 = 0.7661 | – | 4.06e-07
[1], x1 = 0.8854 | – | 1.95e-07
[2], x1 = 0.1409 | 0.817 | –
[2], x1 = 0.1975 | 1.07 | –
[2], x1 = 0.2672 | 1.29 | –
[2], x1 = 0.3389 | 1.39 | –
[2], x1 = 0.4035 | 1.39 | –
[2], x1 = 0.4961 | 1.25 | –
[2], x1 = 0.5517 | 1.12 | –
[2], x1 = 0.6466 | 0.858 | –
[2], x1 = 0.7965 | 0.47 | –
[2], x1 = 0.8311 | 0.396 | –
[2], x1 = 0.9061 | 0.236 | –

CCCCOC(C)=O [butyl ethanoate] + c1ccccc1
Conditions | excess molar enthalpy [kJ/mol] | excess molar volume [m3/mol]
[1], x1 = 0.0901 | – | 4.2e-08
[1], x1 = 0.2214 | – | 7e-08
[1], x1 = 0.3662 | – | 7.6e-08
[1], x1 = 0.4623 | – | 6.9e-08
[1], x1 = 0.543 | – | 6e-08
[1], x1 = 0.6504 | – | 4.4e-08
[1], x1 = 0.7052 | – | 3.6e-08
[1], x1 = 0.7601 | – | 2.8e-08
[1], x1 = 0.8505 | – | 1.7e-08
[1], x1 = 0.937 | – | 6e-09
[2], x1 = 0.1269 | -0.0075 | –
[2], x1 = 0.2523 | -0.014 | –
[2], x1 = 0.4029 | -0.0209 | –
[2], x1 = 0.4575 | -0.0227 | –
[2], x1 = 0.4958 | -0.0245 | –
[2], x1 = 0.5619 | -0.0264 | –
[2], x1 = 0.6599 | -0.0274 | –
[2], x1 = 0.7279 | -0.026 | –
[2], x1 = 0.7714 | -0.0245 | –
[2], x1 = 0.8714 | -0.0204 | –

Cc1ccccc1C [1,2-dimethylbenzene] + CCCCOC(C)=O
Conditions | excess molar enthalpy [kJ/mol] | excess molar volume [m3/mol]
[1], x2 = 0.1121 | – | -2.8e-08
[1], x2 = 0.1983 | – | -6.3e-08
[1], x2 = 0.2744 | – | -8.2e-08
[1], x2 = 0.3652 | – | -9.7e-08
[1], x2 = 0.4665 | – | -1.09e-07
[1], x2 = 0.5691 | – | -1.08e-07
[1], x2 = 0.606 | – | -1.06e-07
[1], x2 = 0.7502 | – | -9e-08
[1], x2 = 0.8041 | – | -8.3e-08
[1], x2 = 0.9032 | – | -5.6e-08
[2], x2 = 0.0707 | -0.009 | –
[2], x2 = 0.1859 | -0.0124 | –
[2], x2 = 0.2214 | -0.02 | –
[2], x2 = 0.3134 | -0.026 | –
[2], x2 = 0.3539 | -0.0273 | –
[2], x2 = 0.4773 | -0.029 | –
[2], x2 = 0.5868 | -0.03 | –
[2], x2 = 0.6462 | -0.0291 | –
[2], x2 = 0.8002 | -0.022 | –
[2], x2 = 0.8364 | -0.019 | –
